This note sets out measurements from paper PMC4331664, “Allosteric regulation of the partitioning of glucose-1-phosphate between glycogen and trehalose biosynthesis in Mycobacterium tuberculosis” (Biochimica et Biophysica Acta. General Subjects, 2015).

Data set [1] addresses T1, ADP-Glc PPase (ADP-glucose pyrophosphorylase) (Mycobacterium tuberculosis, UniProt P9WN43).
T1 construct: gene glgC

In data set [2] the target is T2, Tre-6P Sase (trehalose-6-phosphate synthase) (Mycobacterium tuberculosis, UniProt P9WN11).
T2 construct: gene otsA
T2 sequence (P9WN11 whole entry): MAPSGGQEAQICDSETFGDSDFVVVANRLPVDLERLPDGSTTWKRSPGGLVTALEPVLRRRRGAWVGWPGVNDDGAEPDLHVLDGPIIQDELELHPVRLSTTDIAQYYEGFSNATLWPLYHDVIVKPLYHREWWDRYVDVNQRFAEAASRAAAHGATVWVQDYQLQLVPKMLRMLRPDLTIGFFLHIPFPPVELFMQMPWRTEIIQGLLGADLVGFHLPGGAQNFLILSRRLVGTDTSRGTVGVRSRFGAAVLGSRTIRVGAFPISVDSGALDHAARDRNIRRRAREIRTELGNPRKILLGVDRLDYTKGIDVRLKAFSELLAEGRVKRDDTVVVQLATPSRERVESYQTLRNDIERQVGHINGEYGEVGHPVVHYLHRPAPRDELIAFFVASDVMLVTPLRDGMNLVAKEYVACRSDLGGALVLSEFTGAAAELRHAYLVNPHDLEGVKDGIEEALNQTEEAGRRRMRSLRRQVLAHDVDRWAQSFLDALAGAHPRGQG
To be noted: read-out: A0.5.

In data set [3] the target is T1, ADP-Glc PPase (ADP-glucose pyrophosphorylase). The following applies: read-out: A0.5.
Data set [4] has the same target. Description: biochemical.
The test system of data set [5] is Nc1ncnc2c1ncn2[C@@H]1O[C@H](COP(=O)(O)OP(=O)(O)O[C@H]2O[C@H](CO)[C@@H](O)[C@H](O)[C@H]2O)[C@@H](O)[C@H]1O. In words: purified protein. To be noted: pH 8.0.

Where two headings read alike, the source gives them in different places.

T1 sequence (P9WN43 whole entry): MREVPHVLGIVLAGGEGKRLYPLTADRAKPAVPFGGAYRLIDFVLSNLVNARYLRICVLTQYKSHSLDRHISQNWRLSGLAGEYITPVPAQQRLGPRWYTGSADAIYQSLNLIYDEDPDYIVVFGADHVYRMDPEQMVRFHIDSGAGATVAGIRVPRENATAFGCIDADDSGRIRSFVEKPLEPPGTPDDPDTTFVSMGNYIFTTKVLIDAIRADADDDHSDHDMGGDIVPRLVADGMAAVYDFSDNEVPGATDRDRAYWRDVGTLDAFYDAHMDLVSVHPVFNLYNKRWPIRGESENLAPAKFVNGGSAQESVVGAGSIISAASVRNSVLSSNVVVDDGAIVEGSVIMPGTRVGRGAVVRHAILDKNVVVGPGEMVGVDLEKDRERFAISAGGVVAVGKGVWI

With `O=P(O)(O)OC[C@H]1OC(O)(CO)[C@@H](O)[C@@H]1O` (stereo partly drawn) [Fru-6P], the “fold activation at 5 mM” value in data set [1] is recorded as 1.3 fold. Further, the EC50 in data set [2] was 330 µM.

`O=P(O)(O)OC[C@H]1OC(O)[C@H](O)[C@@H](O)[C@@H]1O` (stereo partly drawn) [Glc-6P]: in data set [3], the EC50 stood at 870 µM.

`C=C(OP(=O)(O)O)C(=O)O` [PEP]: in data set [4], the EC50 was found to be 90 µM.

For the compound “GSase (glycogen synthase) (Mycobacterium tuberculosis H37Rv)”, in data set [5], the K0.5 was determined as 3.95 ± 0.12 mM and the Vmax was found to be 0.21 µmol/min/mg.

One may read the Vmax as the rate approached at saturating substrate.
